The results in this text go back to ChEMBL document CHEMBL4715772, “A facile stereoselective synthesis of dispiro-indeno pyrrolidine/pyrrolothiazole-thiochroman hybrids and evaluation of their antimycobacterial, anticancer and AchE inhibitory activities” (Bioorg Med Chem, 2016).

Each structure is given as a SMILES string. ≈ marks a conversion by molar mass, not a printed value. Calls of active or inactive are those of the source. The rule behind the calls is not given here. Bounds are passed on as bounds.

Data set [1] relates to Mycobacterium tuberculosis. The experiment in a line: Antimycobacterial activity against Mycobacterium tuberculosis H37Rv assessed as inhibition of bacterial growth by microdilution alamar blue broth assay. The format is functional, organism-based.
The subject of data set [2] is MCF7. The experiment in a line: Antiproliferative activity against human MCF7 cells assessed as inhibition of cell proliferation at 50 uM incubated for 72 hrs by CellTiter-Glo assay relative to control. It counts as functional. As to conditions: MCF7, read-out: INH.
The subject of data set [3] is HT-29. In words: Antiproliferative activity against human HT-29 cells assessed as inhibition of cell proliferation incubated for 72 hrs by CellTiter-Glo assay. As to conditions: HT-29, 72 h. It counts as functional, cell-based.
Data set [4] concerns Mycobacterium tuberculosis. In words: Potency index, ratio of pyrimethamine IC50 to test compound IC50 for antimycobacterial activity against Mycobacterium tuberculosis H37Rv by microdilution alamar blue broth assay. It counts as functional.
The nature of data set [5]: Cytotoxicity against African green monkey Vero cells assessed as cell viability after 72 hrs by MTT assay. The format is cell-based. As to conditions: chlorocebus sabaeus, read-out: MNCC.
Data set [6] relates to Mycobacterium tuberculosis. In words: Potency index, ratio of cycloserine IC50 to test compound IC50 for antimycobacterial activity against Mycobacterium tuberculosis H37Rv by microdilution alamar blue broth assay. It counts as functional.
For data set [7], the target named is Acetylcholinesterase (Homo sapiens, UniProt P22303). In words: Inhibition of AChE (unknown origin) using acetylthiocholine chloride as substrate preincubated with enzyme for 15 mins followed by substrate addition by Ellman's method.
The subject of data set [8] is MCF7. In words: Antiproliferative activity against human MCF7 cells assessed as inhibition of cell proliferation incubated for 72 hrs by CellTiter-Glo assay. It counts as functional, cell-based. As to conditions: MCF7, 72 h.
The subject of data set [9] is Mycobacterium tuberculosis. The experiment in a line: Antimycobacterial activity against Mycobacterium tuberculosis H37Rv assessed as inhibition of bacterial growth at 3.198 mM by microdilution alamar blue broth assay. It counts as functional, organism-based.
In data set [10] the test system is Mycobacterium tuberculosis. The experiment in a line: Antimycobacterial activity against Mycobacterium tuberculosis H37Rv assessed as inhibition of bacterial growth at 0.17 mM by microdilution alamar blue broth assay relative to control. It counts as functional.

Acetylcholinesterase, sequence (P22303 whole entry): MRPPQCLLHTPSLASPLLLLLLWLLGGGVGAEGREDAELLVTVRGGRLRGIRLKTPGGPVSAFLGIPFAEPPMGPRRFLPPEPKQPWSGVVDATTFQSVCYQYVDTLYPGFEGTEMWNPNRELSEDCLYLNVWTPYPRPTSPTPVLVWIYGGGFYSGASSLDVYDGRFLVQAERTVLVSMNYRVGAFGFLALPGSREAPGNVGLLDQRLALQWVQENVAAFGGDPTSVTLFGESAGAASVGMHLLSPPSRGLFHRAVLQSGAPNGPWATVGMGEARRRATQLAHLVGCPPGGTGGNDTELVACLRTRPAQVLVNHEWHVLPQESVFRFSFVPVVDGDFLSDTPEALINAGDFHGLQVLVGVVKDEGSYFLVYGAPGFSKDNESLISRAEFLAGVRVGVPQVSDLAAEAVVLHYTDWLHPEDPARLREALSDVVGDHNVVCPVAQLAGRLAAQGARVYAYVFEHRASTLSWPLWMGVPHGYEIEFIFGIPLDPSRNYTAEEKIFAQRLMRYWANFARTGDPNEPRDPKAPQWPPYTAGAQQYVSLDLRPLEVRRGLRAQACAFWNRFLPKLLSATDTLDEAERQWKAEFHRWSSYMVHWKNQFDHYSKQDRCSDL

Regarding `CN1CC(c2ccc(Cl)cc2Cl)[C@@]2(CSc3ccccc3C2=O)C12C(=O)c1ccccc1C2=O` (single isomer, unassigned), the IC50 in data set [1] worked out at 1.07 µM; in [3], 90 µM; in data set [7] it was 24.1 µM; in data set [8] it was 107 µM. Further, the 90% effect concentration (IC90) in data set [1] was 1.98 µM. Further, the MIC in [1] is 6.25 µM (≈ 3.18 µg/mL). For the same compound, the inhibition at 50 µM in [2] was less than 50%. For the same compound, the “Ratio IC50” value in [4] turned out to be 37; in data set [6], 12. Also, in [5], the MNTC at 72 h was more than 6.25 µg/mL.

With `O=C1c2ccccc2C(=O)C12N1CSC[C@@H]1C(c1ccc(Cl)cc1Cl)[C@@]21CSc2ccccc2C1=O` (single isomer, unassigned), the IC50 in [1] came out at 2.87 µM; in [3], 101 µM; in [7], 19.5 µM; in data set [8], 105 µM. Moreover, the IC90 in data set [1] stood at 4.6 µM. The minimal inhibitory concentration (MIC) in [1] is 6.25 µM (≈ 3.45 µg/mL). In [2], the inhibition at 50 µM was less than 50%. For the same compound, the “Ratio IC50” value turned out to be 12 in data set [4] and 4 in data set [6]. Moreover, the MNTC at 72 h in [5] is more than 6.25 µg/mL.

With `CN1C[C@@H](c2cccc(F)c2)[C@@]2(CSc3ccccc3C2=O)C12C(=O)c1ccccc1C2=O`, the IC50 in data set [1] was determined as 4.28 µM; in [3] it was 82.1 µM; in data set [7], 24.6 µM; in data set [8], 108 µM. In data set [1], the IC90 came to 9.86 µM. In addition, the MIC in [1] amounted to 25 µM (≈ 11.4 µg/mL). Moreover, the inhibition at 50 µM in data set [2] was less than 50%. Further, the MNTC at 72 h in data set [5] is more than 6.25 µg/mL.

Take `O=C1c2ccccc2C(=O)C12N1CSC[C@@H]1C(c1ccccc1Cl)[C@@]21CSc2ccccc2C1=O` (single isomer, unassigned): the IC50 in [1] was determined as 8.57 µM; in data set [3], 88.1 µM; in data set [7] it was 33.2 µM; in data set [8] it was 101 µM. For the same compound, in data set [1], the IC90 turned out to be 14.7 µM. Further, the MIC in data set [1] came to 50 µM (≈ 25.9 µg/mL). In addition, the inhibition at 50 µM in [2] was less than 50%. Besides, the MNTC at 72 h in data set [5] is more than 6.25 µg/mL.

As to `NCC[C@H](O)C(=O)N[C@@H]1C[C@H](N)[C@@H](O[C@H]2O[C@H](CN)[C@@H](O)[C@H](O)[C@H]2O)[C@H](O)[C@H]1O[C@H]1O[C@H](CO)[C@@H](O)[C@H](N)[C@H]1O` [AMIKACIN], in data set [1], the IC90 stood at 0.08 µM and the MIC came to 0.16 µM (≈ 0.0937 µg/mL). The MNTC at 72 h in data set [5] was more than 6.25 µg/mL. For the same compound, the result in data set [9] was Active. The inhibition at 170 µM in data set [10] is 30%.

As for `O=C1c2ccccc2C(=O)C12N1CSC[C@@H]1[C@@H](c1ccccc1)[C@@]21CSc2ccccc2C1=O`, the IC50 in data set [1] was 16.3 µM; in data set [3], 92.2 µM; in data set [7], 12.9 µM; in [8] it was 93.5 µM. Further, the IC90 in [1] worked out at 25.5 µM. Moreover, in data set [1], the MIC is 100 µM (≈ 48.4 µg/mL). Moreover, in data set [2], the inhibition at 50 µM was less than 50%. Further, the MNTC at 72 h in data set [5] is more than 6.25 µg/mL.

Take `CN1C[C@@H](c2ccc(F)cc2)[C@@]2(CSc3ccccc3C2=O)C12C(=O)c1ccccc1C2=O`: the IC50 worked out at 11.1 µM in data set [1], 99.6 µM in data set [3], 23.3 µM in data set [7] and 105 µM in [8]. For the same compound, the IC90 in [1] came out at 22 µM. In addition, the MIC in data set [1] is 50 µM (≈ 22.9 µg/mL). In addition, the inhibition at 50 µM in data set [2] was less than 50%. Further, the MNTC at 72 h in data set [5] is more than 6.25 µg/mL.

`O=C1c2ccccc2C(=O)C12N1CSC[C@@H]1[C@@H](c1cccs1)[C@@]21CSc2ccccc2C1=O`: the IC50 was found to be 12.9 µM in [1], 94 µM in [3], 19.1 µM in data set [7] and 97 µM in [8]. For the same compound, the IC90 in data set [1] was determined as 24.6 µM. Further, in data set [1], the MIC was 50 µM (≈ 24.5 µg/mL). Also, the inhibition at 50 µM in data set [2] was less than 50%. The MNTC at 72 h in data set [5] is more than 6.25 µg/mL.
